Laboratory results published in patent publication US8987309B2, “Compounds, pharmaceutical compositions and methods of use of 2-aryl pyridylazoles” (The Translational Genomics Research Institute, priority 2009, dated 2015).
“And” between values parts separate entries of the source, which are not always exact repeats. Equal entries are not always repeated.

Legend:
[1] = system: PC3; assay: IC50 in tumor cell lines (PC3); format: cell-based; conditions: Table 1; prostate tumor cell line PC3
Experimental: (§1) Cytotoxicity Assays. Cytotoxicity assays in the mechanism of action studies were performed according to Mosmann (1983), wherein the activity of mitochondrial reductases were measured using 3-(4,5-dimethylthiozol-3-yl)-2,5-diphenyltetrozolium bromide dye. In brief, cells were seeded in 96-well plates and incubated for various times at 37° C. Inhibition of cell growth was measured by adding 3-(4,5-dimethylthiozol-3-yl)-2,5-diphenyltetrozolium bromide dye, and after an additional 4 h of incubation at 37° C., the 96-well plates were centrifuged, and the culture supernatant was removed. DMSO was added to each well to solubilize the formazan crystals, and the optical density was read at 540 nm on a Quant Spectrophotometer (BioTek Instruments, Winooski, Vt.). Cell growth inhibition data are expressed as percentage of survival compared with untreated cells. The IC50 is defined as the drug concentration required to produce 50% growth inhibition. Results are mean S.E.M. (n 3).

[2] = system: DU145; assay: IC50 in tumor cell lines (DU145); format: cell-based; conditions: Table 1; prostate tumor cell line DU145
Experimental: as §1

[3] = system: H460; assay: IC50 in tumor cell lines (H460); format: cell-based; conditions: Table 1; lung tumor cell line H460
Experimental: as §1

[4] = system: A549; assay: IC50 in tumor cell lines (A549); format: cell-based; conditions: Table 1; lung tumor cell line A549
Experimental: as §1

[5] = system: BxPC3 DPC-4(+/+) and BxPC3 DPC-4(−/−) cells; assay: Cytotoxicity (96-h MTT) in isogenic BxPC3 cell lines; format: cell-based, Human
Experimental: Cell lines and Culture Conditions. Human pancreatic cancer cell lines MiaPaCa-2 (Yunis et al., 1977), Panc-1 (Lieber et al., 1975), and BxPC3 (Tan et al., 1986) were purchased from the American Type Culture Collection (Manassas, Va.) and cultured in a humidified incubator at 37° C., 5% CO2, in RPMI 1640 medium (CellGro, Manassas, Va.) supplemented with 10% heat-inactivated bovine calf serum, 2 mM L-glutamine, 100 U/ml penicillin, and 100 µg/ml streptomycin (Invitrogen, Carlsbad, Calif.). MiaPaCa-2 (CRL-1420) is an adherent epithelial human pancreatic cancer cell line with a doubling time of approximately 40 h (Yunis et al., 1977). Panc-1 (CRL-1469) is an undifferentiated human pancreatic epithelial cell line with a doubling time of approximately 52 h (Lieber et al., 1975). The BxPC3 cell line DPC-4(−/−) and its isogenic restored wild-type DPC-4(+/+) cell line were developed and cultured as described previously (Wang et al., 2006). In brief, a DPC-4-expressing construct (pMSCVneoDPC-4) was created by amplifying full-length cDNA of DPC-4 using reverse transcriptase-PCR and subcloning into the multiple cloning site of a retroviral vector (pMSCVneo). The DPC-4-expressing construct was cotransfected into the BxPC3 DPC-4(−/−) cells using a packaging cell line, resulting in a cell line that constitutively expresses DPC-4. The expression of DPC-4 was confirmed by Western blotting (Wang et al., 2006).
as §1
Mean±S.E.M., n=3. […] Mean±S.E.M., n=3. […] Mean tumor burden is shown.

[6] = biological target: PIM-1 (Homo sapiens, UniProt P11309); assay: Initial kinase screening (Amphora), PIM-1; format: biochemical; set-up: assay run by Amphora Discovery Corporation (Durham, N.C.); conditions: 10 μM compound
Experimental: (§2) Kinase Screening. Initial kinase screening was performed by Amphora Discovery Corporation (Durham, N.C.).

[7] = biological target: TrkB (Homo sapiens, UniProt Q16620); assay: Initial kinase screening (Amphora), TrkB; format: biochemical; set-up: assay run by Amphora Discovery Corporation (Durham, N.C.); conditions: 10 μM compound
Experimental: as §2

[8] = biological target: T1, PDGFRα (Homo sapiens, UniProt P16234); assay: Initial kinase screening (Amphora), PDGFRα; format: biochemical; conditions: 10 μM compound
T1 construct: assay run by Amphora Discovery Corporation (Durham, N.C.)
Experimental: as §2

[9] = biological target: T2, PDGFRβ (Homo sapiens, UniProt P09619); assay: Initial kinase screening (Amphora), PDGFRβ; format: biochemical; conditions: 10 μM compound
T2 construct: assay run by Amphora Discovery Corporation (Durham, N.C.)
Experimental: as §2

[10] = biological target: T3, CDK2/cyclin A (Homo sapiens, UniProt P24941); assay: Initial kinase screening (Amphora), CDK2/cyclin A; format: biochemical; conditions: 10 μM compound
T3 construct: assay run by Amphora Discovery Corporation (Durham, N.C.)
Experimental: as §2

[11] = system: 48 protein kinases; assay: Initial kinase screening (Amphora), panel of 48 protein kinases; format: biochemical; conditions: 10 μM compound
Experimental: as §2

[12] = Solubility (statement); format: physicochemical

TrkB, sequence (Q16620 32-822): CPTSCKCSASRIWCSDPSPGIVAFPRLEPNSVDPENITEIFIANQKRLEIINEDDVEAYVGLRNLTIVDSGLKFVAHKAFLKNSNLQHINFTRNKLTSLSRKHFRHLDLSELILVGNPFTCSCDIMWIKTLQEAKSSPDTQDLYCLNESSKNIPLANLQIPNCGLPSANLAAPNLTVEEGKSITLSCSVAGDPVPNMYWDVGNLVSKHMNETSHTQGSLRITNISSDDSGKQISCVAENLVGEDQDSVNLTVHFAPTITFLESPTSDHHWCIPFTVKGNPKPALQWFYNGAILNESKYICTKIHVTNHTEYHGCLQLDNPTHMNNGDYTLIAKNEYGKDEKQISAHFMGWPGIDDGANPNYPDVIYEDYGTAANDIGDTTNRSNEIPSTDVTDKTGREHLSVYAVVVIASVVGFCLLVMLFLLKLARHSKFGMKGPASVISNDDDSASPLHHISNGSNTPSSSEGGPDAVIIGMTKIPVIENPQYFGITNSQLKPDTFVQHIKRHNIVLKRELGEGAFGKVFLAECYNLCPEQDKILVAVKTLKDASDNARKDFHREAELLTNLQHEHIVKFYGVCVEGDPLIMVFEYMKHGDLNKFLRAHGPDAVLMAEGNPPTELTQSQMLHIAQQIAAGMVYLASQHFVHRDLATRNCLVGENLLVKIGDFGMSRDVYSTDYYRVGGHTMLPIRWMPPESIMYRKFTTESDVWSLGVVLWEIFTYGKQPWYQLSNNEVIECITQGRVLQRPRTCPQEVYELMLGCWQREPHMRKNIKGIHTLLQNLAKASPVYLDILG
T1 sequence (P16234 24-1089, species assumed): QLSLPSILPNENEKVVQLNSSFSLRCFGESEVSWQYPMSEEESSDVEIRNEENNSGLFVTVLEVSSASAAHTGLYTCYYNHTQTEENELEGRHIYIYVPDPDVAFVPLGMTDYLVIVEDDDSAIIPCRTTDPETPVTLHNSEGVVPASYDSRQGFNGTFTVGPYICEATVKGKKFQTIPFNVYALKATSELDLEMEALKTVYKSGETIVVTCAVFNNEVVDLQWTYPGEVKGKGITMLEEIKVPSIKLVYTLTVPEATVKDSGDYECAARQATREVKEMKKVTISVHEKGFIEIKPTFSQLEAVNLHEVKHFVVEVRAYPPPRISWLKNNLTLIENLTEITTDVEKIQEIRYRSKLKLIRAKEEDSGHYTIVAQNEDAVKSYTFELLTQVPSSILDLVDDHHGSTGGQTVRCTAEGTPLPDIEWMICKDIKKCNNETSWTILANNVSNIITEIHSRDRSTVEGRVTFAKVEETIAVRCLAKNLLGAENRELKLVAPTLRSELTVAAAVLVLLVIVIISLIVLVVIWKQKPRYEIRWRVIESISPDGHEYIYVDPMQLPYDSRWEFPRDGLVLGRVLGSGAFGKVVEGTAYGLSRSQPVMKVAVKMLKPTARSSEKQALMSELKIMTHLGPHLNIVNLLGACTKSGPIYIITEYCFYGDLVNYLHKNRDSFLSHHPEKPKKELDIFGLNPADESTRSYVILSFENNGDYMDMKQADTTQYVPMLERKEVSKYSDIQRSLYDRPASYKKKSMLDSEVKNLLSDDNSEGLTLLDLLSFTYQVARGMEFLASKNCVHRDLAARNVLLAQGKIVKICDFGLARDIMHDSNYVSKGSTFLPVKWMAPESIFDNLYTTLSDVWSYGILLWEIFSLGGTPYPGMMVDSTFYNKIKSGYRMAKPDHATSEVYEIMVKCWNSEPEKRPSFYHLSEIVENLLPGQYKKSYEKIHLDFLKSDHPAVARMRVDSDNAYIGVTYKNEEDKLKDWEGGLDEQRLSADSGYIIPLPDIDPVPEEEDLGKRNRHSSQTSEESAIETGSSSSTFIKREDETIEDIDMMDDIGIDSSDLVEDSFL
T2 sequence (P09619 33-1106, species assumed): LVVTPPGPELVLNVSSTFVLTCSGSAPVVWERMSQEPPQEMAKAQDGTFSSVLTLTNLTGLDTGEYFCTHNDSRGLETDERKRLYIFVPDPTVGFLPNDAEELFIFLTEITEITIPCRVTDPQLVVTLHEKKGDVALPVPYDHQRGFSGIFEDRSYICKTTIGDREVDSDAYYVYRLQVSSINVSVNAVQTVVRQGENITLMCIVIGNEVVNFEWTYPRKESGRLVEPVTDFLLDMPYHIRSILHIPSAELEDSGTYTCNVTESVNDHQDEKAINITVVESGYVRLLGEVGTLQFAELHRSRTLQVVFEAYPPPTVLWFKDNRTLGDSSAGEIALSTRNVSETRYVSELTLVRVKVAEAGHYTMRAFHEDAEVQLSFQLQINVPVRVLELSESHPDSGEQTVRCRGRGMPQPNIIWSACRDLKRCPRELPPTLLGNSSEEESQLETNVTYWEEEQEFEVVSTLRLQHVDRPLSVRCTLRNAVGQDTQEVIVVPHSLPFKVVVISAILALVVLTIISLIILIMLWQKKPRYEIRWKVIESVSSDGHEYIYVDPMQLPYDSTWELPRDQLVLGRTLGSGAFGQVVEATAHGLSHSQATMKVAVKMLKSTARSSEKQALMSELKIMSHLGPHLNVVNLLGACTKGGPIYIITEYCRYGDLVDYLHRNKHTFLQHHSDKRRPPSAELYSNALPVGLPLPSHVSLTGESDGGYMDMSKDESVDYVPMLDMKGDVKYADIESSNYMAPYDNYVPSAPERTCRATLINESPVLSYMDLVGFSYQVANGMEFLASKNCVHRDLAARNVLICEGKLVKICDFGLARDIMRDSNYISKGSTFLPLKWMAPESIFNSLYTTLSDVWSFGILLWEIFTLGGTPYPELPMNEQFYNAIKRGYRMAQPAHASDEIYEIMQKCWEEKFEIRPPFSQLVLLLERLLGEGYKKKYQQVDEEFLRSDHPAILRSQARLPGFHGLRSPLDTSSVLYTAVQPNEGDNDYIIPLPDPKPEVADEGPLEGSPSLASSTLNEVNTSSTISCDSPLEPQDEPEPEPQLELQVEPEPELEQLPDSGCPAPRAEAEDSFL
PIM-1, sequence (P11309 whole entry): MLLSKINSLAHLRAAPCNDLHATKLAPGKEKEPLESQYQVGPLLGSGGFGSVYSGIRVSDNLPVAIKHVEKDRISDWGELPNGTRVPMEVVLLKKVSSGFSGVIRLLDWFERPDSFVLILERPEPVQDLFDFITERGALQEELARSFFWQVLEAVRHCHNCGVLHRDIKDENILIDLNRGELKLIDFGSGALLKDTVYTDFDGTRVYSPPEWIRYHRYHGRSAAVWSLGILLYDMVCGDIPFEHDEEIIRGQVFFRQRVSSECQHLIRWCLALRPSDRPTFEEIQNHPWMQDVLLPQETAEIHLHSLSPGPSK

Structure (SMILES) | IC50 [1] [nM] | IC50 [2] [nM] | IC50 [3] [nM] | IC50 [4] [nM] | potency against BxPC3 cell lines (in words) [5] | inhibition of PIM-1 [6] [%] | inhibition of TrkB [7] [%] | inhibition of PDGFRα [8] [%] | inhibition of PDGFRβ [9] [%] | selectivity index ([5]; ratio of the IC50 in BxPC3 DPC-4(+/+) to BxPC3 DPC-4(−/−) cells) | inhibition of CDK2/cyclin A [10] [%] | inhibition of any protein kinases (panel, in words) [11] | solubility (in words) [12]
COc1ccc(-c2cnc(-c3ccncc3-c3ccccc3)o2)cc1 [DPC043] | 9.9 | 20 | 50 | 33 | retained potency | ~50 | ~50 |  |  |  |  |  | 
COc1ccc(-c2cnc(-c3ccccc3-c3ccccc3)o2)cc1 [DPC-026] |  |  |  |  | retained high potency |  |  | 59 | 43 |  |  |  | 
COc1ccc(-c2cnc(-c3cccc4c3-c3ccccc3C4=O)o2)cc1 [UA-62784, reference compound] |  |  |  |  | high potency |  |  |  |  | 2 and 1.9 | 57 | no significant (>50%) inhibition | lack of solubility
